Measured values published in patent US7572888B2, “Methods of assaying receptor activity and constructs useful in such methods” (Duke University, priority 1997, dated 2009).

Tests used:
μORs = molecular target: T1, μORs (Mus musculus, UniProt P42866); test: Agonist-stimulated [35S]GTPγS binding to periaqueductal gray membranes; type: biochemical; conditions: PAG membranes, 50-10,000 nM, 2 hour, 30° C.
T1 construct: from tissue; host or cells: crude membranes of mouse hypothalamus, brain stem and periaqueductal gray

dopamine receptor = test: Locomotor responses to dopamine receptor stimulation; type: in vivo, mouse; conditions: data not shown
From the text: For example, locomotor responses to dopamine receptor stimulation by cocaine and apornorphine were not enhanced (data not shown). […] Other regulatory elements, such as GRKs or βarrestin-1, could compensate for the lack of βarrestin-2, or the receptors could vary in their requirement for βarrestin interaction for their regulation.

μOR = conditions: cited from earlier work
[1] = Rectal body temperature after morphine; type: in vivo, mouse; conditions: after morphine treatment
μ opioid receptor (μOR) = μ opioid receptor (μOR) (Mus musculus, UniProt P42866); conditions: given before morphine, wild type and βarr2-KO mice (data not shown)
Procedure: The “response” was defined by the animal either licking the fore- or hind-paws or flicking the hind-paws. […] To avoid tissue damage the animals were not exposed to the plate for more than 30 seconds. […] WT (n=6), heterozygotes (+/−, n=5) and KO (n=9) mice were analyzed together in the same experiment.
The degree of antinociception was determined by measuring latency of hot plate (56° C.) responses (FIG. 2). […] After 10 min., antinociception was assessed once more. […] Means±S.E.M. are shown.
After 30 minutes or 2 hours, wild-type mice were killed and blood was collected in vials containing sodium fluoride and potassium-oxalate.

Sequence of μ opioid receptor (μOR) (P42866 whole entry): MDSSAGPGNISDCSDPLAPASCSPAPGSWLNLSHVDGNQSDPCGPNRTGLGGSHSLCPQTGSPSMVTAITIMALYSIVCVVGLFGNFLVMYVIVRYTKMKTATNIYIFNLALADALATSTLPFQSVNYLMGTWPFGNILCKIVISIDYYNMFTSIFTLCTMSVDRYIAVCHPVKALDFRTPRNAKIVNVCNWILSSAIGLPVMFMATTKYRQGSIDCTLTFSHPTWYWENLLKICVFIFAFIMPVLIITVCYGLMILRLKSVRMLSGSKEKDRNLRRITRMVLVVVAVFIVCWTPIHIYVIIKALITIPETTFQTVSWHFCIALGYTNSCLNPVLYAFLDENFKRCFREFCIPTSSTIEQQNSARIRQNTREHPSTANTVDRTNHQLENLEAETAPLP
T1 sequence (P42866 whole entry): as above

C[C@@H](NC(=O)[C@@H](N)Cc1ccc(O)cc1)C(=O)NCC(=O)N(C)[C@@H](Cc1ccccc1)C(=O)NCCO [DAMGO, [D-Ala^2, MePhe^4, Gly^5-ol]enkephalin]
[35S]GTPγS binding in βarr2-KO membranes compared to wild-type (μORs): stimulated more [^35S]GTPγS binding

CN1CCc2cccc3c2[C@H]1Cc1ccc(O)c(O)c1-3 [apornorphine]
locomotor responses in βarr2-KO vs wild type (dopamine receptor): not enhanced

CN1CC[C@]23c4c5ccc(O)c4O[C@H]2[C@@H](O)C=C[C@H]3[C@H]1C5 [morphine]
internalization of the μOR (μOR; transfected cells, rat μOR or mouse MOR1): fails to induce the internalization of the μOR
translocation of GFP-tagged βarrestin-2 to μOR (μOR; μOR overexpressed in cell culture, exposure to morphine): fails to translocate
change in body temperature, βarr2-KO vs wild-type [1]: greater drop in body temperature

Oc1ccc2c3c1O[C@H]1c4[nH]c5ccccc5c4C[C@@]4(O)[C@@H](C2)N(CC2CC2)CC[C@]314 [naltrindole]
inhibition of morphine analgesia (μ opioid receptor (μOR)): did not inhibit analgesia

Oc1ccc2c3c1O[C@H]1c4[nH]c5c(c4C[C@@]4(O)[C@@H](C2)N(CC2CC2)CC[C@]314)C[C@@]1(O)[C@H]2Cc3ccc(O)c4c3[C@@]1(CCN2CC1CC1)[C@H]5O4 [nor-binaltorphimine]
inhibition of morphine analgesia (μ opioid receptor (μOR)): did not inhibit analgesia
